# Measured values taken from US7332503B2, “Aporphine esters and their use in therapy” (Axon Biochemicals B.V., priority 2000, dated 2008).
# Where a name gives a salt, the structure may show the parent alone.
# Experiments:
# [1] = literature, animal models; cited from earlier work
# rat [2] = test: Transdermal experiment in one single rat (shaved neck); format: in vivo
# Experimental: The test animals used were male albino Wistar rats weighing between 200 and 370 g. Food and water were available to the rats all the time. They were set in a normal 12 hour day night rhythm. Before the operation the animals resided in a larger cage with a group of rats. During the experiments they were alone in a cage with the dimensions 25*25*35 cm. The blood sampling was performed in freely moving animals, which were all conscious. In this way potential behavioral changes from the treatment could be registered. The operation consisted of the application of a cannula in the vena jugularis. After an experiment the rats were given at least 24 hours to recover.
# This amount of cream was applied with a spatula on the shaved neck of the rat, weighing about 350 g.
# After one hour and 10 minutes, about five droplets of DMSO were smeared on to the rat neck.
# In a comparative experiment 7 mg of Apomorphine hydrochloride solid was dissolved in DMSO (70 microliters).
# rat [3] = test: Dopaminergic activity in rats after s.c. injection in Viscoleo; format: in vivo; details: two rats, ca 3.7 mg/kg (corr. to 2 mg/kg ApoxHCl), 3.7 mg/mL in Viscoleo
# Experimental: The maximum volume of an oil solution/suspension to be injected intramuscularly or subcutaneously is 2-4 mL. This is feasible for the preparations of the aporphine derivatives of the present invention. The accumulated daily dose used in apomorphine s.c. therapy in Parkinson's disease is 4-10 times about 1-4 mg (4-40 mg/day). For the animal experiments performed in the pharmacological research, which led to the present invention, ca 2 mg Apomorphine×HCl (or equivalent molar amount of compounds according to Formula I above, as the base or as a suitable salt or ion-pair) was dissolved in 1 mL of an oil (sesame oil, Viscoleo or another approved oil) and the mixture was gently heated (max 50° C.) shaken in a test tube shaker and ultrasonicated for a short time (minutes) until the mixture became a homogeneous solution or suspension. If necessary, the test compound was first dissolved in 50-300 μL DMSO, water, t-BuOH, PEG, benzylbenzoate, or another suitable and approved solvent or mixtures thereof, before adding the oil (see above) to a total volume of 1 mL.
# First 2 eq. were added and after a night at room temperature the solvent was evaporated and the residue was redissolved in CH2Cl2 and a sample was taken with a pipette and chromatographed on a pipette filled with Al2O3. Elution was performed with first CH2Cl2 and then with CH2Cl2:EtOH (9:1). […]
# [4] = background statement; cited from earlier work
# [5] = comparative: 2 mg in 20 microliters DMSO on shaved neck
# [6] = about 5 mg in Fenuril cream plus DMSO
compound,measurement,setting,value
"CC(=O)Oc1ccc2c(c1OC(C)=O)-c1cccc3c1C(C2)N(C)CC3 (centres unmarked) [10,11-Di-acetyl-apomorphine]",activity relative to parent compound apomorphine,[1],almost as potent as apomorphine itself
CN1CCc2cccc3c2[C@H]1Cc1ccc(O)c(O)c1-3 [Apomorphine hydrochloride],dopaminergic activity after end of stereotypy,rat [2]; [5],No other signs of dopaminergic activity
same,duration of intense stereotypy,rat [2]; [5],about two
same,time to stereotypy,rat [2]; [5],about 30 minutes
CCCCCCCCCCCCCCCC(=O)Oc1ccc2c(c1OC(=O)CCCCCCCCCCCCCCC)-c1cccc3c1C(C2)N(C)CC3 (centres unmarked) [di-C16-Apo],effect (dopaminergic activity),rat [3],No effect whatsoever
CN1CCc2cccc3c2C1Cc1ccc(OC(=O)C(C)(C)C)c(OC(=O)C(C)(C)C)c1-3 (centres unmarked) [dipivaloyl ester pro-drug],activity relative to parent compound apomorphine,[1],much less active than the parent compound
N[C@@H](Cc1ccc(O)c(O)c1)C(=O)O [levodopa],fraction of drug converted to DA in peripheral tissues,[4],about 95%
same,fraction of drug that enters the brain,[4],less than 1%
Mono-Butyryl Apomorphine [Example 2],behaviour the next day at 10:00 a.m.,rat [2]; [6],still active showing signs of chewing
same,"time at which chewing, sniffing and yawning were still observed",rat [2]; [6],~6 h
same,duration of stereotypy,"rat [2]; about 5 mg in Fenuril cream, after DMSO",at least two
same,time to typical dopaminergic syndrome including locomotor activity,"rat [2]; about 5 mg in Fenuril cream, time after DMSO",About 30 minutes
same,"time to intense yawning, sniffing, penile licking and chewing","rat [2]; about 5 mg in Fenuril cream, time after about five droplets of DMSO smeared on neck",about 10 minutes
same,dopaminergic effects,"rat [2]; about 5 mg in about 120 mg Fenuril hand cream on shaved neck, first hour, before DMSO",Dopaminergic effects were seen but they were weak
